Source: the supplement of paper PMC10307832

Experiments:
Assay in all cases: relative viability (nuclei count vs DMSO), 5 days (fraction); higher = more cells survive
XMD13-2 + Vorinostat = compound: C1CC1C(=O)NC2=NNC3=C2C=CC(=C3)C4=CC(=CC=C4)C(=O)NC5CC5 [XMD13-2] + O=C(CCCCCCC(=O)Nc1ccccc1)NO [Vorinostat] (partner 1 µM)
Summary of the method: (§1)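 Lung cancer cell lines were pin-tool dosed in 1536-well plates on the day after seeding, with either a lone drug or a fixed anchor-drug dose plus five library-drug doses (not always all listed) in √10 steps. Nuclei were counted on 4× images after 5 days. Relative viability is the ratio of treated-well to vehicle-well nuclei counts, with each value a median of duplicate plates.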

ALW-II-49-7 + Navitoclax = compound: Cc1ccc(C(=O)Nc2cccc(C(F)(F)F)c2)cc1Nc1cncc(C(N)=O)c1 [ALW-II-49-7] + CC1(C)CCC(c2ccc(Cl)cc2)=C(CN2CCN(c3ccc(C(=O)NS(=O)(=O)c4ccc(N[C@H](CCN5CCOCC5)CSc5ccccc5)c(S(=O)(=O)C(F)(F)F)c4)cc3)CC2)C1 [Navitoclax] (partner 0.5 µM)
Summary of the method: as §1

XMD13-2 + Trametinib = compound: C1CC1C(=O)NC2=NNC3=C2C=CC(=C3)C4=CC(=CC=C4)C(=O)NC5CC5 [XMD13-2] + CC(=O)Nc1cccc(-n2c(=O)n(C3CC3)c(=O)c3c(Nc4ccc(I)cc4F)n(C)c(=O)c(C)c32)c1 [Trametinib] (partner 0.02 µM)
Summary of the method: as §1

ALW-II-49-7 = compound: Cc1ccc(C(=O)Nc2cccc(C(F)(F)F)c2)cc1Nc1cncc(C(N)=O)c1 [ALW-II-49-7]
Summary of the method: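 Five library-drug doses spaced by √10 were pinned onto vehicle-anchored 1536-well plates of lung cancer cell lines that had been kept overnight at 37 °C. Cells went 5 days without medium change, then were fixed, permeabilised and Hoechst-stained together, imaged at 4× and counted by MetaXpress. Viability is the ratio of treated-well to vehicle-well nuclei, taken as a median over plates. Plates required control CV below 25% and at least one doubling.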

Row | Cell Line | relative viability (XMD13-2 + Vorinostat; first compound 0.05 µM) | relative viability (XMD13-2 + Vorinostat; first compound 0.1581 µM) | relative viability (XMD13-2 + Vorinostat; first compound 0.5 µM) | relative viability (XMD13-2 + Vorinostat; first compound 1.581 µM) | relative viability (XMD13-2 + Vorinostat; first compound 5 µM) | relative viability (ALW-II-49-7 + Navitoclax; first compound 0.08 µM) | relative viability (ALW-II-49-7 + Navitoclax; first compound 0.253 µM) | relative viability (ALW-II-49-7 + Navitoclax; first compound 0.8 µM) | relative viability (ALW-II-49-7 + Navitoclax; first compound 8 µM) | relative viability (XMD13-2 + Trametinib; first compound 0.05 µM) | relative viability (XMD13-2 + Trametinib; first compound 0.1581 µM) | relative viability (XMD13-2 + Trametinib; first compound 0.5 µM) | relative viability (XMD13-2 + Trametinib; first compound 1.581 µM) | relative viability (XMD13-2 + Trametinib; first compound 5 µM) | relative viability (ALW-II-49-7; 0.08 µM) | relative viability (ALW-II-49-7; 0.253 µM) | relative viability (ALW-II-49-7; 0.8 µM) | relative viability (ALW-II-49-7; 8 µM) | relative viability (ALW-II-49-7 + Navitoclax; first compound 2.53 µM) | relative viability (ALW-II-49-7; 2.53 µM)
1 | LK-2 | 0.439 | 0.201 | 0.212 | 0.198 | 0.137 | 0.887 | 0.802 | 0.945 | 0.745 | 1.1 | 0.785 | 0.779 | 0.583 | 0.571 | 1.03 | 0.971 | 1 | 0.926 | – | –
2 | LOU-NH91 | 1.05 | 0.971 | 0.935 | 0.852 | 1.02 | 0.642 | 0.733 | 0.623 | 0.604 | 0.802 | 0.726 | 0.793 | 0.729 | 0.85 | 0.939 | 1.03 | 0.951 | 0.837 | 0.345 | 0.654
3 | LU99A | 0.536 | 0.43 | 0.522 | 0.561 | 0.468 | 0.899 | 0.838 | 0.926 | 0.779 | 0.581 | 0.532 | 0.546 | 0.54 | 0.352 | 0.816 | 1.1 | 0.902 | 0.95 | 0.895 | 0.94
4 | LXF-289 | 0.864 | 0.767 | 0.86 | 0.959 | 0.808 | 0.945 | 0.932 | 0.99 | 0.99 | 0.672 | 0.73 | 0.731 | 0.642 | 0.731 | 0.931 | 1.04 | 1.02 | 1.05 | 1.05 | 1.06
5 | NCI-H23 | 0.681 | 0.46 | 0.625 | 0.646 | 0.675 | 0.968 | 0.92 | 0.848 | 0.787 | 0.358 | 0.432 | 0.438 | 0.371 | 0.353 | 0.936 | 0.978 | 0.907 | 0.865 | 0.766 | 1.06
6 | NCI-H322M | 0.927 | 0.984 | 0.914 | – | 1.05 | 1.22 | 1.31 | 1.24 | 1.09 | 0.396 | 0.51 | 0.446 | – | 0.565 | 0.879 | 1.08 | 0.957 | 0.805 | 1.26 | 0.906
7 | NCI-H441 | 0.854 | 1.01 | 0.97 | 0.87 | 0.839 | 0.591 | 0.61 | 0.673 | 0.745 | 0.569 | 0.452 | 0.459 | 0.535 | 0.538 | 1.2 | 0.868 | 0.913 | 0.762 | 0.572 | 0.902
8 | NCI-H460 | 1 | 0.723 | 0.828 | 0.696 | 0.766 | 1.17 | 1.08 | 1.11 | 1.09 | 0.288 | 0.13 | 0.209 | 0.195 | 0.167 | 1 | 1.07 | 0.944 | 0.882 | 1.25 | 1.02
9 | NCI-H520 | 0.799 | 0.743 | 0.698 | 0.869 | 0.414 | 1.04 | 1.23 | – | 1.01 | 0.7 | 0.7 | 0.723 | 0.563 | 0.396 | 1.04 | 0.987 | 0.987 | 0.964 | 1.03 | 0.94
10 | NCI-H596 | 0.726 | 0.612 | 0.582 | 0.61 | 1.02 | 0.98 | 0.784 | 0.85 | 0.927 | 0.826 | 0.857 | 0.965 | 0.954 | 0.798 | 0.913 | 0.988 | 0.941 | 0.829 | 0.972 | 0.893
11 | NCI-H647 | 0.706 | 0.59 | 0.822 | 0.746 | 0.425 | 1.03 | 1.3 | – | 0.716 | 0.621 | 0.4 | 0.587 | 0.431 | 0.305 | 0.904 | 0.944 | 0.926 | 0.795 | 0.479 | 0.967
12 | NCI-H727 | 1.23 | 1.09 | 1.41 | 1.33 | 1.22 | 0.611 | 0.447 | 0.482 | 0.552 | 0.401 | 0.431 | 0.37 | 0.382 | 0.38 | 1.09 | 0.907 | 0.9 | 0.855 | 0.53 | 0.902
13 | NCI-H838 | 0.839 | 0.661 | 0.756 | 0.713 | 0.763 | 1.12 | 1.42 | 1.17 | 1.17 | 0.552 | 0.569 | 0.576 | 0.557 | 0.552 | 0.945 | 0.901 | 0.903 | 0.918 | 1.14 | 0.982
14 | NCI-H1355 | 0.704 | 0.601 | 0.694 | 0.624 | 0.638 | 0.93 | 0.988 | 0.981 | 0.802 | 0.544 | 0.428 | 0.457 | 0.42 | 0.428 | 0.939 | 0.963 | 0.953 | 0.928 | 0.715 | 0.957
15 | NCI-H1395 | 0.732 | 0.871 | 0.651 | 0.594 | 0.707 | 1.28 | 1.16 | 1.01 | 1.22 | 1.05 | 1.01 | 1.06 | 0.966 | 1.04 | 0.941 | 0.992 | 1.1 | 0.851 | 0.307 | 0.917
16 | NCI-H1437 | 0.879 | 0.815 | 0.756 | 0.793 | 0.786 | 1.11 | 1.17 | – | 1.06 | 0.598 | 0.49 | 0.482 | 0.498 | 0.417 | 0.985 | 0.989 | 0.973 | 0.947 | 1.07 | 0.994
17 | NCI-H1650 | 0.661 | 0.584 | 0.576 | 0.594 | 0.555 | 1.05 | 1.06 | 1.32 | 1.21 | 0.852 | 0.663 | 0.65 | 0.526 | 0.695 | 0.854 | 0.789 | 0.836 | 0.985 | 1.34 | 0.985
18 | NCI-H1651 | 0.586 | 0.561 | 0.565 | 0.593 | 0.613 | 1.09 | 0.969 | 1.13 | 1.06 | 0.909 | 0.843 | 0.789 | 0.869 | 0.834 | 1.09 | 0.923 | 0.956 | 0.943 | 0.921 | 0.952
19 | NCI-H1666 | 0.999 | 1.02 | 1.09 | 1.03 | 1 | 0.879 | 1.03 | 1.03 | 1 | 0.745 | 0.937 | 0.89 | 0.799 | 0.987 | 0.988 | 0.943 | 0.92 | 1.04 | 0.978 | 1.24
20 | NCI-H1734 | 1.02 | 0.777 | 0.753 | 0.685 | 0.547 | 0.778 | 0.954 | 0.822 | 0.665 | 0.783 | 0.653 | 0.753 | 0.662 | 0.627 | 0.933 | 1.04 | 1.01 | 0.822 | 0.634 | 0.886
21 | NCI-H1755 | 0.827 | 0.685 | 0.875 | 0.926 | 0.795 | 0.976 | 1.03 | 0.976 | 0.759 | 0.821 | 0.714 | 0.722 | 0.754 | 0.697 | 0.975 | 1.03 | 1.02 | 0.897 | 0.884 | 0.968
22 | NCI-H1793 | 1.03 | 0.602 | 0.746 | 0.666 | 0.928 | 0.268 | 0.505 | 0.463 | 0.463 | 0.524 | 0.442 | 0.407 | 0.432 | 0.444 | 0.984 | 0.894 | 0.757 | 0.934 | 0.363 | 0.836
23 | NCI-H1915 | 0.582 | 0.486 | 0.5 | 0.486 | 0.474 | 0.771 | 0.823 | 0.733 | 0.705 | 0.392 | 0.289 | 0.318 | 0.284 | 0.35 | 0.993 | 1.01 | 0.945 | 0.544 | 0.764 | 0.85
24 | NCI-H1944 | 0.632 | 0.53 | 0.607 | 0.808 | 0.628 | 1.06 | 1.14 | 0.991 | 1.07 | 0.486 | 0.393 | 0.429 | 0.458 | 0.411 | 0.997 | 0.91 | 0.949 | 0.893 | 1.11 | 0.934
25 | NCI-H1975 | 0.795 | 0.636 | 0.662 | 0.931 | 0.801 | 1.06 | 1.05 | 0.993 | 0.998 | 0.27 | 0.327 | 0.375 | 0.358 | 0.382 | 0.956 | 0.996 | 0.757 | 0.841 | 0.919 | 0.855
26 | NCI-H1993 | 1.2 | 0.814 | 0.769 | 0.613 | 0.907 | 0.85 | 0.927 | 0.904 | 1.08 | 0.563 | 0.504 | 0.508 | 0.507 | 0.539 | 0.899 | 0.952 | 1.07 | 1.01 | 0.785 | 1.07
27 | NCI-H2009 | 0.838 | 0.732 | 0.835 | 0.783 | 0.804 | 1.1 | 1.16 | 1.12 | 0.983 | 0.344 | 0.271 | 0.29 | 0.307 | 0.264 | 0.967 | 1.04 | 0.93 | 0.709 | 0.904 | 0.844
